Several values for one entry are separate records, joined by “and”; a condition that tells them apart may be missing. Equal values may be shown once. Where a name gives a salt, the structure may show the parent alone. Each block holds one molecule with its values, some of them ahead of it.
What was measured:
[1] = Toxicokinetics after daily dermal application
in vivo = conditions: both, Göttingen, minipig, plasma, topical or ocular
[2] = system: moderate-to-severe acne vulgaris; conditions: human, in vivo

Structure (SMILES): COc1ccc(-c2ccc3cc(C(=O)O)ccc3c2)cc1C12CC3CC(CC(C3)C1)C2 [adapalene]
mean Cmax and AUC0-24hr for adapalene versus dose ([1]; 0.25 to […] adapalene with […] minocycline, Day 91): approximately dose proportional
systemic exposure, dependence on sex ([1]; Day 91): independent of sex
Tmax ([1]; Group 3, adapalene […] alone, daily dermal, Day 91, minimum-maximum (median not reported)): (0-8) hr
Tmax ([1]; Group 4, adapalene […] + minocycline […] FCD105 Foam, Day 1, minimum-maximum (median not reported)): (8-24) hr
Tmax ([1]; Group 4, adapalene […] + minocycline […] FCD105 Foam, Day 91, minimum-maximum (median not reported)): (0-24) hr
Tmax ([1]; Göttingen, minipig, plasma, topical or ocular, […], Tmax, Group 3, adapalene […] alone, daily dermal, Day 1, median): 24 h
Tmax ([1]; Göttingen, minipig, plasma, topical or ocular, […], Tmax, Group 5, adapalene […] + minocycline […] FCD105 Foam, Day 1, median): 24 h
Tmax ([1]; Göttingen, minipig, plasma, topical or ocular, […], Tmax, Group 5, adapalene […] + minocycline […] FCD105 Foam, Day 91, median): 1 h
Tmax ([1]; Göttingen, minipig, plasma, topical or ocular, […], Tmax, Group 6, adapalene […] + minocycline […] FCD105 Foam, Day 1, median): 24 h
Tmax ([1]; Göttingen, minipig, plasma, topical or ocular, […], Tmax, Group 6, adapalene […] + minocycline […] FCD105 Foam, Day 91, median): 1 h

Cmax (in vivo): 17.4 ng/mL
Structure (SMILES): CN(C)c1ccc(O)c2c1C[C@H]1C[C@H]3[C@H](N(C)C)C(O)=C(C(N)=O)C(=O)[C@@]3(O)C(O)=C1C2=O [minocycline, minocycline hydrochloride]
systemic exposure, dependence on sex ([1]; Day 91): independent of sex
Tmax ([1]; Group 6, minocycline […] + adapalene […] FCD105 Foam, Day 1, minimum-maximum (median not reported)): (4-8) hr
Tmax ([1]; Group 6, minocycline […] + adapalene […] FCD105 Foam, Day 91, minimum-maximum (median not reported)): (0-8) hr
Tmax ([1]; Göttingen, minipig, plasma, topical or ocular, […], Tmax, Group 4, minocycline […] + adapalene […] FCD105 Foam, Day 1, median): 4 h
Tmax ([1]; Göttingen, minipig, plasma, topical or ocular, […], Tmax, Group 4, minocycline […] + adapalene […] FCD105 Foam, Day 91, median): 2 h
Tmax ([1]; Göttingen, minipig, plasma, topical or ocular, […], Tmax, Group 5, minocycline […] + adapalene […] FCD105 Foam, Day 1, median): 24 h
Tmax ([1]; Göttingen, minipig, plasma, topical or ocular, […], Tmax, Group 5, minocycline […] + adapalene […] FCD105 Foam, Day 91, median): 2 h

Abdominal pain [2]: 0 subjects (%)
Acne, (%) of subjects [2]: (1.8%)
Buming sensation [2]: 0 subjects (%)
Burning and Stinging: Severe, subjects n (%) [2]: 0
Burning sensation [2]: 0 subjects (%)
Constipation [2]: 0 subjects (%)
Dehydration [2]: 0 subjects (%)
Dermatitis contact [2]: 0 subjects (%)
Dryness: Mild, subjects n (%) [2]: 27 (24.1%) and 26 (24.8%) and 17 (17.2%)
Dryness: Severe, subjects n (%) [2]: 0
Erythema: Severe, subjects n (%) [2]: 1 (0.9%) and 2 (1.9%) and 1 (1.0%)
Hyperaesthesia [2]: 0 subjects (%)
Hyperpigmentation: Moderate, subjects n (%) [2]: 4 (3.8%) and 4 (4.0%) and 6 (5.4%)
Hyperpigmentation: Severe, subjects n (%) [2]: 0
Immune system disorders [2]: 0 subjects (%)
Infectious mononucleosis [2]: 0 subjects (%)
Ligament rupture [2]: 0 subjects (%)
Metabolism and nutrition disorders [2]: 0 subjects (%)
Nail discolouration [2]: 0 subjects (%)
Nasopharyngitis [2]: 0 subjects (%)
Nausea [2]: 0 subjects (%)
Neoplasms benign, malignant and unspecified (incl cysts and polyps) [2]: 0 subjects (%)
Oropharyngeal pain [2]: 0 subjects (%)
Otitis media acute [2]: 0 subjects (%)
Pain [2]: 0 subjects (%)
Pain of skin [2]: 0 subjects (%)
Paranasal sinus discomfort [2]: 0 subjects (%)
Pharyngitis streptococcal [2]: 0 subjects (%)
Pyogenic granuloma [2]: 0 subjects (%)
Rash, (%) of subjects [2]: (0.9%)
Rhinorrhoea [2]: 0 subjects (%)
Scaling: Severe, subjects n (%) [2]: 0
Sciatica [2]: 0 subjects (%)
Seasonal allergy [2]: 0 subjects (%)
Toothache [2]: 0 subjects (%)
Vomiting [2]: 0 subjects (%)
Weight, Max [2]: 43.5, 163.3 kg and 43.5, 166.0 kg
Weight, Mean [2]: 77.06 kg and 77.28 kg
Weight, Median [2]: 71.10 kg and 71.50 kg
Weight, Min [2]: 43.5, 163.3 kg and 43.5, 166.0 kg
Structure (SMILES): COc1ccc(-c2ccc3cc(C(=O)O)ccc3c2)cc1C12CC3CC(CC(C3)C1)C2 [0.3% adapalene foam]
AE Maximum Severity: Mild [2]: 14 (12.5%)
AE Maximum Severity: Moderate [2]: 4 (3.6%)
AE Maximum Severity: Severe [2]: 2 (1.8%)
Burning and Stinging: None, subjects n (%) [2]: 82 (78.1%) and 97 (92.4%) and 89 (89.9%) and 105 (93.8%)
Diastolic Blood Pressure, Max [2]: 58, 98 mmHg and 56, 93 mmHg and 57, 94 mmHg and 48, 94 mmHg
Diastolic Blood Pressure, Mean [2]: 73.1 mmHg and 72.8 mmHg and 72.1 mmHg
Diastolic Blood Pressure, Median [2]: 72.0 mmHg
Diastolic Blood Pressure, Min [2]: 58, 98 mmHg and 56, 93 mmHg and 57, 94 mmHg and 48, 94 mmHg
Dryness: None, subjects n (%) [2]: 82 (73.2%) and 75 (71.4%) and 77 (73.3%) and 81 (81.8%)
Erythema: Mild, subjects n (%) [2]: 36 (32.1%) and 27 (25.7%) and 36 (34.3%) and 27 (27.3%)
Erythema: None, subjects n (%) [2]: 51 (45.5%) and 55 (52.4%) and 58 (55.2%) and 62 (62.6%)
Heart Rate, Max [2]: 52, 100 beats/min and 52, 99 beats/min and 51, 99 beats/min and 52, 96 beats/min
Heart Rate, Mean [2]: 75.9 beats/min and 76.1 beats/min and 75.7 beats/min and 74.1 beats/min
Heart Rate, Median [2]: 73.0 beats/min and 77.0 beats/min and 76.0 beats/min
Heart Rate, Min [2]: 52, 100 beats/min and 52, 99 beats/min and 51, 99 beats/min and 52, 96 beats/min
Hyperpigmentation: Mild, subjects n (%) [2]: 20 (19.0%) and 19 (19.2%) and 31 (27.7%) and 22 (21.0%)
Hyperpigmentation: None, subjects n (%) [2]: 81 (77.1%) and 76 (76.8%) and 75 (67.0%) and 79 (75.2%)
Itching: None, subjects n (%) [2]: 87 (77.7%) and 79 (75.2%) and 86 (81.9%) and 86 (86.9%)
Number (%) of subjects withdrawn from study due to TEAE [2]: 3 (2.7%) subjects (%)
Number (%) of subjects withdrawn from study due to treatment-related TEAE [2]: 3 (2.7%) subjects (%)
Scaling: Mild, subjects n (%) [2]: 21 (18.8%) and 19 (18.1%) and 17 (16.2%) and 12 (12.1%)
Scaling: Moderate, subjects n (%) [2]: 2 (1.8%) and 3 (2.9%) and 2 (1.9%) and 3 (3.0%)
Scaling: None, subjects n (%) [2]: 89 (79.5%) and 83 (79.0%) and 86 (81.9%) and 84 (84.8%)
Serious AE [2]: 0
Subjects reporting at least one treatment-related TEAE [2]: 10 (8.9%) subjects (%)
Subjects with any TEAE leading to discontinuation of study drug [2]: 3 (2.7%)
Subjects with at least one AE [2]: 20 (17.9%)
Systolic Blood Pressure, Max [2]: 92, 150 mmHg and 96, 150 mmHg and 95, 152 mmHg and 92, 149 mmHg
Systolic Blood Pressure, Mean [2]: 116.7 mmHg
Systolic Blood Pressure, Min [2]: 92, 150 mmHg and 96, 150 mmHg and 95, 152 mmHg and 92, 149 mmHg
TEAE: Abdominal pain [2]: 0
TEAE: Acne [2]: 2 (1.8%)
TEAE: Acute sinusitis [2]: 1 (0.9%)
TEAE: Burning sensation [2]: 0
TEAE: Burns first degree [2]: 1 (0.9%)
TEAE: Constipation [2]: 0
TEAE: Cough [2]: 1 (0.9%)
TEAE: Dehydration [2]: 0
TEAE: Dermatitis contact [2]: 0
TEAE: Diarrhoea [2]: 1 (0.9%)
TEAE: Dry skin [2]: 4 (3.6%)
TEAE: Eczema [2]: 1 (0.9%)
TEAE: Erythema of eyelid [2]: 1 (0.9%)
TEAE: Eye disorders [2]: 3 (2.7%)
TEAE: Eye irritation [2]: 2 (1.8%)
TEAE: Facial bones fracture [2]: 1 (0.9%)
TEAE: Gastrointestinal disorders [2]: 1 (0.9%)
TEAE: General disorders and administration site conditions [2]: 1 (0.9%)
TEAE: Headache [2]: 2 (1.8%)
TEAE: Hordeolum [2]: 1 (0.9%)
TEAE: Hyperaesthesia [2]: 0
TEAE: Immune system disorders [2]: 0
TEAE: Infections and infestations [2]: 8 (7.1%)
TEAE: Infectious mononucleosis [2]: 0
TEAE: Injury, poisoning and procedural complications [2]: 2 (1.8%)
TEAE: Ligament rupture [2]: 0
TEAE: Ligament sprain [2]: 1 (0.9%)
TEAE: Metabolism and nutrition disorders [2]: 0
TEAE: Nail discolouration [2]: 0
TEAE: Nasopharyngitis [2]: 0
TEAE: Nausea [2]: 0
TEAE: Neoplasms benign, malignant and unspecified (incl cysts and polyps) [2]: 0
TEAE: Nervous system disorders [2]: 2 (1.8%)
TEAE: Oropharyngeal pain [2]: 0
TEAE: Otitis media acute [2]: 0
TEAE: Pain [2]: 0
TEAE: Pain of skin [2]: 0
TEAE: Pharyngitis [2]: 1 (0.9%)
TEAE: Pharyngitis streptococcal [2]: 0
TEAE: Pyogenic granuloma [2]: 0
TEAE: Rash [2]: 2 (1.8%)
TEAE: Respiratory, thoracic and mediastinal disorders [2]: 1 (0.9%)
TEAE: Rhinorrhoea [2]: 0
TEAE: Sciatica [2]: 0
TEAE: Seasonal allergy [2]: 0
TEAE: Sinusitis [2]: 1 (0.9%)
TEAE: Skin discolouration [2]: 1 (0.9%)
TEAE: Skin irritation [2]: 1 (0.9%)
TEAE: Staphylococcal infection [2]: 1 (0.9%)
TEAE: Toothache [2]: 0
TEAE: Upper respiratory tract infection [2]: 1 (0.9%)
TEAE: Viral upper respiratory tract infection [2]: 1 (0.9%)
TEAE: Vomiting [2]: 0
Treatment-Related AE [2]: 10 (8.9%)
Withdrawal from Study, Primary Reason: Adverse Event, % of subjects [2]: 3 (2.7%)
Withdrawal from Study, Primary Reason: Adverse Event, number of subjects [2]: 3 (2.7%)
adverse events assessed as mild in severity [2]: 12.5%
dry skin adverse event [2]: 3.6%
overall tolerability (LSTA) scores compared to the other treatment groups [2]: lower
subject discontinuations due to a treatment emergent adverse event [2]: 2.7%
subjects with TEAEs that led to discontinuation of study drug [2]: 3 subjects
subjects with severe (treatment related) TEAE [2]: 1.8%
treatment emergent adverse events, frequency [2]: 8.9%
TEAE: Skin and subcutaneous tissue disorders ([2]; sc): 10 (8.9%)
